{
  "source": "paper PMC4686210",
  "about": "“Binding of Cyclic Di-AMP to the Staphylococcus aureus Sensor Kinase KdpD Occurs via the Universal Stress Protein Domain and Downregulates the Expression of the Kdp Potassium Transporter” (Journal of Bacteriology, 2015)",
  "target": "T1, KdpD (sensor histidine kinase KdpD, KdpD^Sa) (Staphylococcus aureus, UniProt Q2FWH7)",
  "T1 construct": "USP domain, amino acids E225 to F383, MBP fusion [MBP-KdpD(USP)]",
  "T1 sequence (Q2FWH7 225-383)": "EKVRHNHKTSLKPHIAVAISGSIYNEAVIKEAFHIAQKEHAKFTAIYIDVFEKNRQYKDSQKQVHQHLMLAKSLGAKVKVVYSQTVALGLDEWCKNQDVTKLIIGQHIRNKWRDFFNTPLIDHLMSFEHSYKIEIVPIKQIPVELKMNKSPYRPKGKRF",
  "test": "DRaCALA with […]-c-di-AMP and purified MBP-KdpD(USP); cold nucleotide competition",
  "type": "binding",
  "data": [
    {"molecule": "Nc1ncnc2c1ncn2[C@@H]1O[C@@H]2COP(=O)(O)O[C@H]3[C@@H](O)[C@H](n4cnc5c(N)ncnc54)O[C@@H]3COP(=O)(O)O[C@H]2[C@H]1O", "note": "[c-di-AMP]", "values": [
      {"measurement": "Kd", "value": "2000 ± 180", "unit": "nM"}
    ]}
  ]
}
